The values that follow come from patent publication US12152016B2, “Aryl hydrocarbon receptor modulators and uses thereof” (Beth Israel Deaconess Medical Center, Inc., priority 2018, dated 2024).

For orientation: EC50 means the midpoint of the concentration-response curve. A lower EC50 goes with greater potency.

For one experiment, the system named is DSS induced colitis. In words: DSS induced colitis in mice. The experiment is classed as in vivo, C57BL/6 mice. Here is the method: C57BL/6 (8-10 week, male) mice were administered drinking water supplemented with 3% (wt/vol) dextran sodium sulfate (DSS; MP Biomedicals) for 7 days followed by a 13 day recovery period with unsupplemented drinking water. Compound 109 or compound 108 were suspended in vehicle (1% HPMC and 1% polysorbate 80 in water) and given daily by oral gavage (1 ug/mouse in 100 uL), starting at day 0. Control mice were administered 100 μL vehicle. Body weight and disease activity index (DAI) were recorded daily. DAI was determined by combining scores of weight loss, stool consistency, blood in stool, activity, and appearance.^1 Scores were determined as follows: change in weight (0: <1%, 1: 1-10%, 2: 10-18%, 3: 18-20%); stool consistency (0: normal, 1: loose stools, 2: diarrhea); stool blood (0: negative, 1: trace blood, 2: bloody stool, 3: gross bleeding), activity (0: normal, 1: low activity, 2: hiding, 3: no response to gentle stimuli) and appearance (0: normal, 1: rigor, 2: hunched posture). On day 7 and day 11, mice were euthanized and colon were removed for length measurement, histology, RNA isolation, and lamina propria mononuclear cell (LPMC) extraction as detailed below.
Dissected colon were cut longitudinally and rolled using the Swiss roll method with the distal side in the center.^2,3 Colons were fixed overnight in 10% neutral buffered formalin, processed for paraffin embedding and sectioned at 5 μm thickness. To visualize and quantify the inflammatory response and crypt loss, hematoxylin and eosin staining (H&E) was performed. Briefly, sections were cleared with xylene, rehydrated through alcohol gradient, stained by hematoxylin, washed by acid and ammonium alcohol, rinsed in water and exposed to Eosin followed by dehydrating through graded alcohols and cleared in xylene. All sections were mounted using Permount (Fisher Scientific) and visualized using a BX41 microscope (Olympus). For histological scoring, 3 transverse sections of Swiss roll were chosen and 9 (100×) images were captured for each section. Images were analyzed for inflammation and crypt structure and scored by a blind observer as follows: inflammation (0: rare inflammatory cells in the lamina propria; 1: increased numbers of inflammatory cells in the lamina propria; 2: confluence of inflammatory cells extending in to the submucosa; 3: transmural extension of the inflammatory infiltrate.); crypt loss (0: none; 1: basal 1/3 damaged; 2: basal 2/3 damaged; 3: only surface epithelium intact; 4: entire crypt and epithelium lost). Inflammation and crypt loss were scored separately and multiplied by a factor of 1-4 to adjust for impacted area of tissue section (1: 0-25%; 2: 25.1-50% affected; 3: 50.1-75% affected; 4: >75% affected).^1,4 To examine goblet cell number, sections were stained by a commercial periodic acid-Schiff (PAS) and Alcian blue kit (Fisher Scientific). For quantification, 3 transverse sections of Swiss roll were chosen per colon and 5 random images at 200x were taken per section in the distal region of the colon. Goblet cell number was counted per image and normalized to colon length by a blind observer using image J.^5
Colonic epithelium and lamina propria cells were isolated as previously described.^6,7 Briefly, colons were dissected and washed with HBSS to remove fecal contents. Colon were opened longitudinally and cut into 2 cm segments. […]

For experiment [1], the target named is T1, aryl hydrocarbon receptor (AHR) (Homo sapiens, UniProt P35869).
T1 sequence (P35869 11-848): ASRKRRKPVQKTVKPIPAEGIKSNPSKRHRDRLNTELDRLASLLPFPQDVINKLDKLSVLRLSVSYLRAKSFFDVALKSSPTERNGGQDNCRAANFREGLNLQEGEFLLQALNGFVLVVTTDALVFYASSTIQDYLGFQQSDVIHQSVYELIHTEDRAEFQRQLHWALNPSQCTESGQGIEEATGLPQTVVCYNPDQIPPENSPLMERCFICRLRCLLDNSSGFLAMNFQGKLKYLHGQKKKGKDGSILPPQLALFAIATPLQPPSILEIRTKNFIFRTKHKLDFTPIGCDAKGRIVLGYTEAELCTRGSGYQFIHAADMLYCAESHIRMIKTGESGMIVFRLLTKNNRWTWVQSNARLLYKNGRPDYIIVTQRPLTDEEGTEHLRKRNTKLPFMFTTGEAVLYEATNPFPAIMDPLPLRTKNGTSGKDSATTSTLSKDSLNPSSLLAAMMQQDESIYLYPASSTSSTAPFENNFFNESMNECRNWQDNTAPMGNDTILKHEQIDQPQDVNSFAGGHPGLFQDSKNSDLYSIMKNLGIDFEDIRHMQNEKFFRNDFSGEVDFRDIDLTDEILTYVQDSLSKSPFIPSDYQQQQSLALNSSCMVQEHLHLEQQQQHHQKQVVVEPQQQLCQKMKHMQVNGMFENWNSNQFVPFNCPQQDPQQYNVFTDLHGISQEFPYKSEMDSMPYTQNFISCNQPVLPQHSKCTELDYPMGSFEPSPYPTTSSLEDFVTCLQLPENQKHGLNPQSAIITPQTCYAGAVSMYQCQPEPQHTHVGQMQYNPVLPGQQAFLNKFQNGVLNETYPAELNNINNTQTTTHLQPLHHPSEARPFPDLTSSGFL
Nature of the experiment: XRE-driven luciferase reporter assay, human HepG2. For orientation: Reporter assays use an easily measured gene product as a stand-in for the process of interest.

`N#Cc1cccc(C(=O)c2c[nH]c3ccccc23)n1` [Compound 108, 6-(1H-indole-3-carbonyl)pyridine-2-carbonitrile]: in the experiment on DSS induced colitis (3% DSS 7 days + 13 days recovery, 1 μg daily by oral gavage), the “DSS induced colitis, overall effect” value is recorded as “attenuates DSS induced colitis”. In the experiment on DSS induced colitis (3% DSS, 1 μg/day PO), the overall disease score result is given as “improved the overall disease score”, the survival entry is reported as “significantly improved survival” and the weight loss entry is listed as “reduced weight loss”. For the same compound, in experiment [1] (Human HepG2, fold over vehicle), the “XRE luciferase Emax (fold)” value is given as 74 fold. The same compound displayed an EC50 in experiment [1] (XRE luciferase EC50, Human HepG2, least square curve fitting, >10,000 = does not reach 50% of Emax of ITE at 10 μM (highest concentration tested)) of 2.8 nM.
